Data on 16 compounds can be found in patent US11999715B2, “ASK1 inhibiting agents” (BIOGEN MA INC., priority 2018, dated 2024).

pIC50: −log10 of the molar value. Some results are limits rather than exact numbers.

One assay has as its target T1, ASK1/MAP3K5 (Homo sapiens, UniProt Q99683).
T1 sequence (Q99683 1-1374): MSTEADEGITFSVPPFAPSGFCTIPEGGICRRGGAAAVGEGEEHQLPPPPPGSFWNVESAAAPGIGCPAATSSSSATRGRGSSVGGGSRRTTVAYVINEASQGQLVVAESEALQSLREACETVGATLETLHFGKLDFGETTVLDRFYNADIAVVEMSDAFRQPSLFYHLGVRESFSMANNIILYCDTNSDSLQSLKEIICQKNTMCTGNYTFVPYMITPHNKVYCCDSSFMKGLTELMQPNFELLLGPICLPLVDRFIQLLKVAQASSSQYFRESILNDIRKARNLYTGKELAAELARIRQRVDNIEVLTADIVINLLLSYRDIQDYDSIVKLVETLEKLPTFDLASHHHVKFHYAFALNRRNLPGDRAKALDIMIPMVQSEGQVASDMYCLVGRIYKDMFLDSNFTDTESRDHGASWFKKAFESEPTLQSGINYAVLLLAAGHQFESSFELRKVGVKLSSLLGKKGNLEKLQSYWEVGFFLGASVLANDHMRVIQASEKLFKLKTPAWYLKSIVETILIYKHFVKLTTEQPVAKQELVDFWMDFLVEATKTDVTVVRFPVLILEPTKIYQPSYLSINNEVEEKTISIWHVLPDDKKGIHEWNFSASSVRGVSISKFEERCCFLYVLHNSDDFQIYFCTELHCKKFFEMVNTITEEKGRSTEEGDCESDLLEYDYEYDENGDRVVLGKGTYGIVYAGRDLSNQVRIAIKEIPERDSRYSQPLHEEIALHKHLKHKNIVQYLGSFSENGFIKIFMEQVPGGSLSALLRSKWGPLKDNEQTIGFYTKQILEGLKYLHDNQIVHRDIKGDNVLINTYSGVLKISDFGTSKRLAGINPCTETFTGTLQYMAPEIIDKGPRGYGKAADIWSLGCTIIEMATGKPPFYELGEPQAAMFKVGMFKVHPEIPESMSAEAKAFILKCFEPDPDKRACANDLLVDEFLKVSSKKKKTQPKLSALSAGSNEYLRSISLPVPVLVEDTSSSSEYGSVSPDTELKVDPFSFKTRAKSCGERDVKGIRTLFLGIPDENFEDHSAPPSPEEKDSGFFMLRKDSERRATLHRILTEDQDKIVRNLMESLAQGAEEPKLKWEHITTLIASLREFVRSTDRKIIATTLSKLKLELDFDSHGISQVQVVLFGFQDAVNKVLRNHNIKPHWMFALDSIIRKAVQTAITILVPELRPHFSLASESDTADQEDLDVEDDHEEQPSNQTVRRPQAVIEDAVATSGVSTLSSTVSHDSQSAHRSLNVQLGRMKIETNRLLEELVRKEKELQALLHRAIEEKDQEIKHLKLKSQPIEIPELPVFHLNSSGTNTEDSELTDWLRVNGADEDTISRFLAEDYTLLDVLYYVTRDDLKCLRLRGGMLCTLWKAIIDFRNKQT
Nature of the assay: ASK1/MAP3K5 kinase assay by Reaction Biology Corp. (headed ASK1 TR-FRET Assay). In kind it is biochemical. To be noted: 20 μM myelin basic protein, 10 μM ATP. The procedure: Example 111: Brief Description of ASK1 TR-FRET Assay The protein kinase inhibitory activity of the compounds described herein were tested using the ASK1/MAP3K5 assay by Reaction Biology Corp. (Malvern, PA). The assay procedure follows (and is also available on the Reaction Biology Corp. website). Base Reaction Buffer: 20 mM Hepes (pH 7.5), 10 mM MgCl2, 1 mM EGTA, 0.02% Brij35, 0.02 mg/mL BSA, 0.1 mM Na3VO4, 2 mM DTT, 1% DMSO; Substrate: 20 μM of myelin basic protein (MBP) and 10 μM ATP; Protein kinase: ASK1/MAP3K5. Reaction Procedure: • 1. Prepare indicated substrate in freshly prepared Base Reaction Buffer. • 2. Deliver any required cofactors to the substrate solution. • 3. Deliver indicated kinase into the substrate solution and gently mix. • 4. Deliver compounds in DMSO into the kinase reaction mixture by Acoustic; technology (Echo550; nanoliter range), incubate for 20 minutes at room temperature. • 5. Deliver ^33P-ATP (specific activity 10 μCi/μL) into the reaction mixture to initiate the reaction. • 6. Incubate kinase reaction for 2 hours at room temperature. • 7. Reactions are spotted onto P81 ion exchange paper. • 8. Detect kinase activity by filter-binding method.
(In general: TR-FRET usually uses a lanthanide donor and a delayed reading to cut background.)

Assay [1] addresses T2, ASK1 T838 auto phosphorylation (Homo sapiens, UniProt Q99683).
T2 sequence (Q99683 1-1374): T1 sequence (Q99683 1-1374)
In words: ASK1 (AUTO PHOS T838) assay, MSD format, in HEK-293T cells transfected with ASK1-V5. It counts as cell-based. The note with it: ASK1 T838 auto phosphorylation in HEK-293T cells, 1 hr compound incubation; class symbols. The procedure:
Example 112: Brief Description of ASK1(AUTO PHOS T838) Assay ASK1 T838 auto phosphorylation was measured in HEK-293T cells using MSD assay format. HEK 293T cells were seeded in 15 cm plates at a density of 18 million cells and 20 mL DMEM with 10% FBS, Pen/Strep media. The plates were incubated at 37° C. overnight. Media on plates was changed to OPTI-MEM, serum free media and cells were transfected with 9 μg of ASK1-V5 tagged full length plasmid using Lipofectamine 2000 (Invitrogen) and the plates were incubated at 37° C. overnight. Cells were trypsinized, counted on Nexcellometer and plated into 96 well tissue culture plates with 100,000 cells/well and 200 μL media. Cells were incubated for 4 hr at 37° C. then ASK1 compounds were added using a HP 300e. Compounds were tested at 20 μM with 3 fold, 10 point dilution points then incubated for 1 hr at 37° C. A lysis buffer (Cell Signaling) was prepared with protease and phosphatase inhibitor and maintained at 4° C. until use. Media from cells was discarded and 120 μL of cold lysis buffer was added to the cells, the plate was shaken 4° C. for 1 hr. Lysate was mixed using Apricot liquid handler; aspirating up and down 16 times at high speed using 50 μL volume. […] Plates were then incubated on a plate shaker overnight at 4° C. Plates were washed 3× with MSD wash buffer and 50 μL of rabbit anti-pASK1 T838 antibody was added to the wells and incubated for 2 hr at room temperature on a plate shaker. Plates were then washed and 50 μL of goat anti-rabbit sulfa-tag (1:500 dilution) was added to wells, and incubated for 1 hr at room temperature on a plate shaker. […] Plates were immediately read on a MSD Instrument Reader where chemoluminescence signal was measured. Data was analyzed using Graph Pad or Genedata, the data was normalized and plotted, % activity versus log of compound concentration. The IC50 values were obtained from a 4 parameter fit. The compounds described herein were tested for in the above cell-based assay.

For `COc1nn(C)cc1C(=O)Nc1cccc(-c2nncn2C2CCN(C(=O)OC(C)(C)C)CC2)n1` [Example 38, tert-Butyl 4-(3-(6-(3-methoxy-1-methyl-1H-pyrazole-4-carboxamido)pyridin-2-yl)-4H-1,2,4-triazol-4-yl)piperidine-1-carboxylate], the negative-log IC50 (pIC50) – broadly, the IC50 on a negative log10 scale, so that one unit is a factor of ten – on ASK1/MAP3K5 (class symbols) was 6.00 to 7.00; in assay [1], ≥ 6.00.
With `COc1nn(C)cc1C(=O)Nc1cccc(-c2nncn2[C@@H]2CCCNC2)n1` [Example 39, (R)-3-Methoxy-1-methyl-N-(6-(4-(piperidin-3-yl)-4H-1,2,4-triazol-3-yl)pyridin-2-yl)-1H-pyrazole-4-carboxamide], the pIC50 (against ASK1/MAP3K5 (class symbols); in assay [1]) was 5.00 to 6.00 throughout.
`COc1nn(CC(C)C)cc1C(=O)Nc1cccc(-c2nncn2C(C)C)n1` [Example 42, 1-Isobutyl-N-(6-(4-isopropyl-4H-1,2,4-triazol-3-yl)pyridin-2-yl)-3-methoxy-1H-pyrazole-4-carboxamide]: the figures for the pIC50 (against ASK1/MAP3K5 (class symbols); in assay [1]) were ≥ 7.00 and ≥ 6.00, respectively.
In the case of `COc1nn(CC(C)C)cc1C(=O)Nc1cccc(-c2nncn2C(C)C(F)(F)F)n1` (centres unmarked) [Example 43, 1-Isobutyl-3-methoxy-N-(6-(4-(1,1,1-trifluoropropan-2-yl)-4H-1,2,4-triazol-3-yl)pyridin-2-yl)-1H-pyrazole-4-carboxamide], the results for the pIC50 (at ASK1/MAP3K5 (class symbols); in assay [1]) were ≥ 7.00 and ≥ 6.00, respectively.
Consider `COc1nn(Cc2ccccn2)cc1C(=O)Nc1cccc(-c2nncn2C(C)C)n1` [Example 44, N-(6-(4-Isopropyl-4H-1,2,4-triazol-3-yl)pyridin-2-yl)-3-methoxy-1-(pyridin-2-ylmethyl)-1H-pyrazole-4-carboxamide], for which the figures for the pIC50 (against ASK1/MAP3K5 (class symbols); in assay [1]) were ≥ 7.00 and ≥ 6.00, respectively.
Consider `COc1nn(CCN(C)C)cc1C(=O)Nc1cccc(-c2nncn2C(C)C)n1` [Example 45, 1-(2-(Dimethylamino)ethyl)-N-(6-(4-isopropyl-4H-1,2,4-triazol-3-yl)pyridin-2-yl)-3-methoxy-1H-pyrazole-4-carboxamide], for which the figures for the negative-log IC50 (pIC50) (against ASK1/MAP3K5 (class symbols); in assay [1]) were ≥ 7.00 and ≥ 6.00, respectively.
`COc1nn(CCN2CCOCC2)cc1C(=O)Nc1cccc(-c2nncn2C(C)C)n1` [Example 46, N-(6-(4-Isopropyl-4H-1,2,4-triazol-3-yl)pyridin-2-yl)-3-methoxy-1-(2-morpholinoethyl)-1H-pyrazole-4-carboxamide]: the negative-log IC50 (pIC50) is ≥ 7.00 at ASK1/MAP3K5 (class symbols) and ≥ 6.00 in assay [1].
Taken in the same sequence, the figures for `COc1nn(CC2CC2)cc1C(=O)Nc1cccc(-c2nncn2[C@@H](C)C(F)(F)F)n1` [Example 48, (S)-1-(Cyclopropylmethyl)-3-methoxy-N-(6-(4-(1,1,1-trifluoropropan-2-yl)-4H-1,2,4-triazol-3-yl)pyridin-2-yl)-1H-pyrazole-4-carboxamide] were ≥ 7.00 and ≥ 6.00.
Take `COc1nn(C)cc1C(=O)Nc1cccc(-c2nncn2C2(C)COC2)n1` [Example 49, 3-Methoxy-1-methyl-N-(6-(4-(3-methyloxetan-3-yl)-4H-1,2,4-triazol-3-yl)pyridin-2-yl)-1H-pyrazole-4-carboxamide]: the pIC50 was ≤ 5.00 at ASK1/MAP3K5 (class given in words) and < 5.00 in assay [1].
On to `CC(C)n1cnnc1-c1cccc(NC(=O)c2cn(CC3CC3)nc2C(F)F)n1` [Example 50, 1-(Cyclopropylmethyl)-3-(difluoromethyl)-N-(6-(4-isopropyl-4H-1,2,4-triazol-3-yl)pyridin-2-yl)-1H-pyrazole-4-carboxamide], for which the pIC50 was ≥ 7.00 at ASK1/MAP3K5 (class symbols) and ≥ 6.00 in assay [1].
As for `COCCn1cc(C(=O)Nc2cccc(-c3nncn3[C@@H](C)C(F)(F)F)n2)c(C(F)F)n1` [Example 51, (S)-3-(Difluoromethyl)-1-(2-methoxyethyl)-N-(6-(4-(1,1,1-trifluoropropan-2-yl)-4H-1,2,4-triazol-3-yl)pyridin-2-yl)-1H-pyrazole-4-carboxamide], the pIC50 at ASK1/MAP3K5 (class symbols) was ≥ 7.00; in assay [1] it was ≥ 6.00.
For the compound `COCCn1cc(C(=O)Nc2cccc(-c3nncn3[C@@H](C)C(F)(F)F)n2)c(OC)n1` [Example 52, (S)-3-Methoxy-1-(2-methoxyethyl)-N-(6-(4-(1,1,1-trifluoropropan-2-yl)-4H-1,2,4-triazol-3-yl)pyridin-2-yl)-1H-pyrazole-4-carboxamide], the negative-log IC50 (pIC50) at ASK1/MAP3K5 (class symbols) is ≥ 7.00; in assay [1], ≥ 6.00.
With `COCCn1cc(C(=O)Nc2cccc(-c3nncn3[C@H](C)C(F)(F)F)n2)c(OC)n1` [Example 53, (R)-3-Methoxy-1-(2-methoxyethyl)-N-(6-(4-(1,1,1-trifluoropropan-2-yl)-4H-1,2,4-triazol-3-yl)pyridin-2-yl)-1H-pyrazole-4-carboxamide], the pIC50 was 6.00 to 7.00 on ASK1/MAP3K5 (class symbols) and ≥ 6.00 in assay [1].
Regarding `COCCn1cc(C(=O)Nc2cccc(-c3nncn3C3CC3)n2)c(OC)n1` [Example 54, N-(6-(4-Cyclopropyl-4H-1,2,4-triazol-3-yl)pyridin-2-yl)-3-methoxy-1-(2-methoxyethyl)-1H-pyrazole-4-carboxamide], the pIC50 on ASK1/MAP3K5 (class symbols) was ≥ 7.00; in assay [1], ≥ 6.00.
With `C=CCn1cc(C(=O)Nc2cccc(-c3nncn3C(C)C)n2)c(OC)n1` [Example 55, 1-Allyl-N-(6-(4-isopropyl-4H-1,2,4-triazol-3-yl)pyridin-2-yl)-3-methoxy-1H-pyrazole-4-carboxamide], the pIC50 was ≥ 7.00 at ASK1/MAP3K5 (class symbols) and ≥ 6.00 in assay [1].
For `C=CCn1cc(C(=O)Nc2cccc(-c3nncn3[C@@H](C)C(F)(F)F)n2)c(OC)n1` [Example 57, (S)-1-Allyl-3-methoxy-N-(6-(4-(1,1,1-trifluoropropan-2-yl)-4H-1,2,4-triazol-3-yl)pyridin-2-yl)-1H-pyrazole-4-carboxamide] the same measures were ≥ 7.00 and ≥ 6.00.
